Data: US6737383B1, “Herbicidal oxadiazolidines” (priority 1999, dated 2004)

Legend:
[1] = system: purple nutsedge; test: Test B pre/postemergence purple nutsedge; type: in vivo, Cyperus rotundus
How it was run: (§1)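 Test chemicals in a non-phytotoxic solvent mixture with surfactant were sprayed preemergence onto planted seeds and postemergence onto plants 2 to 18 cm tall (1- to 4-leaf stage). After twelve to sixteen days in a greenhouse, injury was visually rated against untreated controls from 0 (no effect) to 10 (complete control).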

[2] = system: rape; test: Test B pre/postemergence rape; type: in vivo, Brassica napus
How it was run: as §1

[3] = system: duck salad; test: Test B flood test duck salad; type: in vivo, Heteranthera limosa
How it was run: (§2)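 Each value is a visual injury score relative to controls, with 10 meaning complete control and 0 no effect. Evaluation took place twelve to sixteen days after the 2-leaf-stage plants were treated and kept in the greenhouse.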

[4] = system: bamyardgrass; test: Test B flood test barnyardgrass; type: in vivo, Echinochloa crus-galli
How it was run: as §2

[5] = system: pigweed; test: Test B pre/postemergence pigweed; type: in vivo, Amaranthus retroflexus
How it was run: as §1

[6] = system: blackgrass; test: Test B pre/postemergence blackgrass; type: in vivo, Alopecurus myosuroides
How it was run: as §1

[7] = system: cocklebur; test: Test B pre/postemergence cocklebur; type: in vivo, Xanthium strumarium
How it was run: as §1

[8] = system: smallflower flatsedge; test: Test B flood test smallflower flatsedge; type: in vivo, Cyperus difformis
How it was run: as §2

[9] = system: velvetleaf; test: Test B pre/postemergence velvetleaf; type: in vivo, Abutilon theophrasti
How it was run: as §1

[10] = system: morningglory; test: Test B pre/postemergence morningglory; type: in vivo, Ipomoea hederacea
How it was run: as §1

[11] = system: wild oat; test: Test B pre/postemergence wild oat; type: in vivo, Avena fatua
How it was run: as §1

[12] = system: giant foxtail; test: Test B pre/postemergence giant foxtail; type: in vivo, Setaria faberii
How it was run: as §1

[13] = system: wheat; test: Test B pre/postemergence wheat; type: in vivo, Triticum aestivum
How it was run: as §1

[14] = system: sugar beet; test: Test B pre/postemergence sugar beet; type: in vivo, Beta vulgaris
How it was run: as §1

[15] = system: soybean; test: Test B pre/postemergence soybean; type: in vivo, Glycine max
How it was run: as §1

[16] = system: rice; test: Test B flood test rice; type: in vivo, Oryza sativa
How it was run: as §2

[17] = Postemergence, Rate 125 g/ha, scale 0 to 10, 0 is no effect, 10 is complete control
[18] = Preemergence, Rate 250 g/ha, scale of 0 to 10 where 0 is no effect and 10 is complete control
[19] = Preemergence, Rate 500 g/ha, scale of 0 to 10 where 0 is no effect and 10 is complete control
[20] = Rate 62 g/ha, Postemergence, scale 0 to 10 (0 no effect, 10 complete control)
[21] = Rate 250 g/ha, Postemergence, scale of 0 to 10 where 0 is no effect and 10 is complete control
[22] = Rate 500 g/ha, Postemergence, scale 0 to 10, 0 no effect, 10 complete control
[23] = Preemergence, Rate 62 g/ha, scale of 0 to 10 where 0 is no effect and 10 is complete control
[24] = Rate 62 g/ha, headed Pre-emergence (flood test species), scale 0 to 10 (0 no effect, 10 complete control)
[25] = Rate 125 g/ha, Pre-emergence, flood test species, scale 0 to 10 where 0 is no effect and 10 is complete control
[26] = Rate 250 g/ha, Pre-emergence, flood-test species, scale 0 to 10, 0 is no effect, 10 is complete control
[27] = Rate 500 g/ha, Pre-emergence, flood test species, scale 0 to 10 (0 no effect, 10 complete control)

CC(C)N(C(=O)n1oc(=O)n(C2CC3CCC2C3)c1=O)c1ccc(F)cc1 (stereo not shown) [Compound 327]
Plant response rating, Nutsedge [1, 17]: 0
Nutsedge plant response rating (0 to 10 scale) ([1]; Preemergence, Rate 125 g/ha): 0
Nutsedge plant response rating [1, 18]: 0
Nutsedge plant response rating [1, 19]: 0
Nutsedge plant response rating [1, 20]: 0
Plant response rating, Nutsedge [1, 21]: 0
Plant response rating, Nutsedge [1, 22]: 0
Plant response rating, Rape [2, 17]: 0
Rape plant response rating [2, 23]: 0
Rape plant response rating (0 to 10 scale) ([2]; Preemergence, Rate 125 g/ha): 0
Rape plant response rating [2, 18]: 0
Rape plant response rating [2, 19]: 2
Rape plant response rating [2, 20]: 0
Plant response rating, Rape [2, 21]: 2
Plant response rating, Rape [2, 22]: 2
Ducksalad plant response rating [3, 24]: 0
Ducksalad plant response rating [3, 25]: 0
Ducksalad plant response rating [3, 26]: 0
Ducksalad plant response rating [3, 27]: 0
Barnyardgrass plant response rating [4, 24]: 0
Barnyardgrass plant response rating [4, 25]: 0
Barnyardgrass plant response rating [4, 26]: 3
Barnyardgrass plant response rating [4, 27]: 0
Plant response rating, Redroot pigweed [5, 17]: 5
Redroot pigweed plant response rating [5, 23]: 0
Redroot pigweed plant response rating (0 to 10 scale) ([5]; Preemergence, Rate 125 g/ha): 0
Redroot pigweed plant response rating [5, 18]: 1
Redroot pigweed plant response rating [5, 19]: 3
Redroot pigweed plant response rating [5, 20]: 4
Plant response rating, Redroot pigweed [5, 21]: 6
Plant response rating, Redroot pigweed [5, 22]: 7
Plant response rating, Blackgrass [6, 17]: 0
Blackgrass plant response rating [6, 23]: 0
Blackgrass plant response rating (0 to 10 scale) ([6]; Preemergence, Rate 125 g/ha): 0
Blackgrass plant response rating [6, 18]: 4
Blackgrass plant response rating [6, 19]: 7
Blackgrass plant response rating [6, 20]: 0
Plant response rating, Blackgrass [6, 21]: 3
Plant response rating, Blackgrass [6, 22]: 7
Plant response rating, Cocklebur [7, 17]: 0
Cocklebur plant response rating [7, 23]: 0
Cocklebur plant response rating (0 to 10 scale) ([7]; Preemergence, Rate 125 g/ha): 0
Cocklebur plant response rating [7, 18]: 0
Cocklebur plant response rating [7, 19]: 0
Cocklebur plant response rating [7, 20]: 0
Plant response rating, Cocklebur [7, 21]: 0
Plant response rating, Cocklebur [7, 22]: 0
S. Flatsedge plant response rating [8, 24]: 0
S. Flatsedge plant response rating [8, 25]: 0
S. Flatsedge plant response rating [8, 26]: 0
S. Flatsedge plant response rating [8, 27]: 0
Plant response rating, Velvetleaf [9, 17]: 0
Velvetleaf plant response rating [9, 23]: 0
Velvetleaf plant response rating (0 to 10 scale) ([9]; Preemergence, Rate 125 g/ha): 0
Velvetleaf plant response rating [9, 18]: 0
Velvetleaf plant response rating [9, 19]: 0
Velvetleaf plant response rating [9, 20]: 0
Plant response rating, Velvetleaf [9, 21]: 0
Plant response rating, Velvetleaf [9, 22]: 0
Plant response rating, Morningglory [10, 17]: 8
Morningglory plant response rating [10, 23]: 0
Morningglory plant response rating (0 to 10 scale) ([10]; Preemergence, Rate 125 g/ha): 0
Morningglory plant response rating [10, 18]: 0
Morningglory plant response rating [10, 19]: 0
Morningglory plant response rating [10, 20]: 7
Plant response rating, Morningglory [10, 21]: 8
Plant response rating, Morningglory [10, 22]: 10
Plant response rating, Wild oats [11, 17]: 0
Wild oats plant response rating [11, 23]: 0
Wild oats plant response rating (0 to 10 scale) ([11]; Preemergence, Rate 125 g/ha): 0
Wild oats plant response rating [11, 18]: 0
Wild oats plant response rating [11, 19]: 4
Wild oats plant response rating [11, 20]: 0
Plant response rating, Wild oats [11, 21]: 0
Plant response rating, Wild oats [11, 22]: 0
Plant response rating, Giant foxtail [12, 17]: 0
Giant foxtail plant response rating [12, 23]: 7
Giant foxtail plant response rating (0 to 10 scale) ([12]; Preemergence, Rate 125 g/ha): 8
Giant foxtail plant response rating [12, 18]: 9
Giant foxtail plant response rating [12, 19]: 9
Giant foxtail plant response rating [12, 20]: 0
Plant response rating, Giant foxtail [12, 21]: 0
Plant response rating, Giant foxtail [12, 22]: 0
Plant response rating, Wheat [13, 17]: 0
Wheat plant response rating [13, 23]: 0
Wheat plant response rating [13, 19]: 4
Wheat plant response rating [13, 20]: 0
Plant response rating, Wheat [13, 21]: 0
Plant response rating, Wheat [13, 22]: 1
Plant response rating, Sugarbeets [14, 17]: 0
Sugarbeets plant response rating [14, 23]: 0
Sugarbeets plant response rating (0 to 10 scale) ([14]; Preemergence, Rate 125 g/ha): 0
Sugarbeets plant response rating [14, 18]: 0
Sugarbeets plant response rating [14, 19]: 3
Sugarbeets plant response rating [14, 20]: 0
Plant response rating, Sugarbeets [14, 21]: 0
Plant response rating, Sugarbeets [14, 22]: 0
Plant response rating, Soybean [15, 17]: 6
Soybean plant response rating [15, 23]: 0
Soybean plant response rating (0 to 10 scale) ([15]; Preemergence, Rate 125 g/ha): 0
Soybean plant response rating [15, 18]: 0
Soybean plant response rating [15, 19]: 0
Soybean plant response rating [15, 20]: 5
Plant response rating, Soybean [15, 21]: 6
Plant response rating, Soybean [15, 22]: 7
Rice plant response rating [16, 24]: 0
Rice plant response rating [16, 25]: 0
Rice plant response rating [16, 26]: 0
Rice plant response rating [16, 27]: 0
